The results in this text go back to PMC11190223, “Identification of sulfakinin receptor regulating feeding behavior and hemolymph trehalose homeostasis in the silkworm, Bombyx mori” (Scientific Reports, 2024).

The subject of experiment [1] is BNGR-A9. Nature of the experiment: Receptor internalization assay, BNGR-A9-EGFP. Particulars: BNGR-A9-EGFP stably expressing HEK293 cells; 100 nM, 30 min; fluorescence microscopy. It is filed as cell-based, Bombyx mori. An excerpt: (§1) The entire coding region of BNGR-A9 (NM_001134272.1) was obtained by PCR and subsequently cloned into pEGFP-N1 and pCMV-Flag vectors using the primers listed in Table S1. The Flag-BNGR-A9 construct was generated for functional assays, including CRE-luciferase, calcium mobilization, and ERK phosphorylation assays, while BNGR-A9-EGFP was created for receptor visualization purposes. Additionally, for expression in the BmN cell system, the BNGR-A9 gene was inserted into the pIZT/V5-His vector. All constructs were validated by DNA sequencing.
BNGR-A9-EGFP stably expressing HEK293 cells were seeded onto coverslips and incubated overnight under normal growth conditions. Subsequently, the cells were starved with fresh serum-free DMEM for 1 h and treated with either 100 nM BmsSK or BmnsSK. After a 30-min incubation period, the cells were washed three times with ice-cold PBS and fixed with 3% paraformaldehyde for 10 min at room temperature. The images were taken by a fluorescence microscopy (Leica, Germany).

Experiment [2] concerns BNGR-A9. Kind of experiment: Fura-2 AM-based Ca^2+ mobilization assay, BNGR-A9. It is filed as cell-based, Bombyx mori.
Text: as §1
HEK293 cells were cultured with Dulbecco’s Modified Eagle’s Medium (Gibco, NY, USA) supplied with 10% Fetal bovine serum (Gibco, NY, USA) in a 37 °C humidified incubator containing 5% CO2. BmN cells were maintained in TC 100 insect medium (AppliChem, Darmstadt, Germany) supplied with 10% Fetal bovine serum in a 28 °C incubator. Both HEK293 and BmN cells were transfected with X-tremeGENE (Roche, Mannheim, Germany) according to the manufacturer’s instruction.
To monitor the changes of intracellular calcium, Fura-2 AM (Dojindo, Kumamoto, Japan) was utilized as the calcium indicator, following the methodology outlined in a previous study. Briefly, HEK293 cells stably expressing Flag-BNGR-A9 were exposed to various concentrations of Bombyx mori neuropeptides and measured using a fluorescence spectrometer (Tecan Infinite 200 PRO). Calcium levels were determined by the ratio of fluorescence excitation at 340 nm to that at 380 nm. If necessary, cells were pre-treated with U73122, FR900359, or KT5720 for 30 min prior to the initiation of the experiment. For assays involving BmN cells expressing pIZT-BNGR-A9, the procedures were conducted at 28 °C, and HBSS was replaced with HBM (Hepes-Buffered Medium: 140 mM NaCl, 5 mM KCl, 1 mM MgCl2, 1.2 mM Na2HPO4, 5 mM NaHCO3, 10 mM glucose, and 20 mM HEPES–NaOH, CaCl2 (1 mM), pH 6.2).
Data analysis was conducted using GraphPad Prism (San Diego, CA), with results presented as mean ± SEM. Statistical significance was assessed through Student’s t-test or two-way ANOVA with multiple comparisons, with p values below 0.05 denoted as significant (*p < 0.05, **p < 0.01, ***p < 0.001). Dose–response curves were generated via non-linear curve fitting. Adobe Photoshop was used to process images, ensuring uniform brightness and contrast settings across all conditions. All images and data provided represent findings from a minimum of three independent experiments.

For experiment [3], the system named is BNGR-A9. Kind of experiment: ERK1/2 phosphorylation (western blot), BNGR-A9-expressing HEK293 cells. The class given is cell-based, Bombyx mori.
The test system of experiment [4] is BNGR-A9. Nature of the experiment: IP3 ELISA in BNGR-A9-expressing HEK293 cells. The settings on record: 1 μM, 1 h. The class given is cell-based, Bombyx mori. On the procedure:
Figure 6 Bombyx sulfated-sulfakinin mediated activation of BNGR-A9 via Gαq signaling pathway. (A and B) Effects of Gαq inhibitor FR900359 (1 μM) on the CRE-driven luciferase activities in BNGR-A9 expressing HEK293 (A) and BmN (B) cells. BNGR-A9 stable transfected cells were pretreated with FR900359 (1 μM) for 30 min and challenged with 100 nM BmsSK for 4 h. (C) Accumulation of IP3 in HEK293 cells expressing BNGR-A9 in response to Bombyx neuropeptides was assessed. Cells were pre-treated with serum-free DMEM for 1 h, followed by stimulation with 1 μM of the indicated Bombyx neuropeptides for 1 h. The level of IP3 in the supernatant was then determined using the IP3 immunoassay detection kit. (D, E) Effects of Gαq/PLC inhibitors on Flag-BNGR-A9 mediated increase of intracellular Ca^2+ level. Flag-BNGR-A9 expressing HEK293 (D) and BmN (E) cells were pretreated with Gαq inhibitorFR900359 (1 μM), U73122 (5 μM) for 30 min, and incubated with Fura-2 AM for 30 min, followed by challenging with 100 nM BmsSK. (F, G) effects of protein kinase A (PKA) inhibitor KT5720 on BmsSK initiated Ca^2+ in Flag-BNGR-A9-expressing cells. […] After 30 min incubation with Fura-2 AM, the cells were treated with 100 nM BmsSK, and detected with a fluorescence spectrometer. […] Data were analyzed by using a Student’s t-test (*p < 0.05; **p < 0.01). […]
In general terms: ELISA stands for enzyme-linked immunosorbent assay.

Experiment [5] can be described thus: Feeding behavior assay: larval body weight. It is filed as in vivo, Bombyx mori. Particulars: injected daily, final concentration 10 nM, 5th instar larvae, days 2 and 4 post-injection vs control (HBM). The protocol:
(§2) Synchronized larvae of the first day of 5th instar were chosen for feeding behavior assay. Silkworms were starved for 12 h to standardize the starting level. To knock down bngr-a9, 5 μg dsRNA/BNGR-A9 or dsRNA/EGFP was injected into the abdomen of the larvae at the indicated time using a 10 μl microsyringe. For silkworms, both treated and untreated with dsRNA, synthetic SK peptide (at a final concentration of 10 nM) was injected daily starting from the second day of the fifth instar. For each trial, twenty synchronized P50 larvae were used. After injection, the silkworm larvae were fed with enough mulberry leaves three times a day and maintained under standard conditions. Larval body weights and food consumption were measured every other day until pupation.

The nature of experiment [6]: Feeding behavior assay: food consumption. It is filed as in vivo, Bombyx mori. Particulars: injected daily, final concentration 10 nM, 5th instar larvae; days 2 and 4 post-injection vs control (HBM). The protocol: Double-stranded RNAs were synthesized using MEGAscript RNAi T7 Kit (Ambion, CA, USA) following the manufacturer’s instructions. Templates for in vitro transcription were generated by PCR using the primers containing the T7 polymerase promoter sequence at their 5′ ends, as listed in Table S1. For each 20-μl reaction, 1 μg PCR product was added as the template. Following transcription, the reaction mixture was purified by phenol/chloroform extraction and ethanol precipitation. The resulting dsRNA products were diluted with nuclease-free water to achieve the desired concentration (final volume of 2–5 μl).
as §2

pEC50: −log10 of the molar value. Where no end group is shown, it is not given here. [ ]: non-standard residue; d: D form. sY = N[C@@H](Cc1ccc(OS(=O)(=O)O)cc1)C(=O)O

The pEC50 is the EC50 on a negative log10 scale, so that one unit is a factor of ten. A higher pEC50 goes with a small EC50. On to “BmsSK: Bombyx mori sulfated-sulfakinin, synthetic; sulfated version of GDDTFDD^8YGHLRF-NH2 (GDDTFDD[sY]GHLRF-NH2; N-terminus assumed; SMILES CC(C)C[C@H](NC(=O)[C@H](Cc1c[nH]cn1)NC(=O)CNC(=O)[C@H](Cc1ccc(OS(=O)(=O)O)cc1)NC(=O)[C@H](CC(=O)O)NC(=O)[C@H](CC(=O)O)NC(=O)[C@H](Cc1ccccc1)NC(=O)[C@@H](NC(=O)[C@H](CC(=O)O)NC(=O)[C@H](CC(=O)O)NC(=O)CN)[C@@H](C)O)C(=O)N[C@@H](CCCNC(=N)N)C(=O)N[C@@H](Cc1ccccc1)C(N)=O)”, for which the Receptor internalization result with BNGR-A9 [1] was “rapid and significant receptor redistribution within the cytoplasm”. For the same substance, in the experiment on BNGR-A9 [2] (1 μM peptide, Fura-2 AM, BNGR-A9-expressing HEK293 and BmN cells, three independent experiments), the “Ca^2+ response” value is “triggered responses in BNGR-A9-expressing cells”. In addition, in the experiment on BNGR-A9 [2] (BNGR-A9-expressing HEK293 and BmN cells, Fura-2 AM), the “Ca^2+ response compared to BmnsSK” value is given as “significantly greater Ca^2+ response”. The pEC50 in the experiment on BNGR-A9 [2] (BmN cells expressing BNGR-A9, Fura-2 AM, 28 °C, HBM pH 6.2, three independent experiments) was 7.29; with BNGR-A9 [2] (HEK293 cells expressing BNGR-A9, Fura-2 AM, three independent experiments) it was 7.54. Moreover, the ERK1/2 phosphorylation result in the experiment on BNGR-A9 [3] (HEK293 cells expressing BNGR-A9, serum-starved 1 h) was “quick and dose-dependent increase in ERK1/2 phosphorylation”. For the same substance, in the experiment on BNGR-A9 [3] (HEK293 cells, 10 nM BmsSK time course (Fig. 7A)), the “Time of peak ERK1/2 phosphorylation” value came to 5 min. For the same substance, the “Intracellular IP3 level” value in the experiment with BNGR-A9 [4] is listed as “significant elevation”. Also, the Body weight entry was “weight loss” in experiment [5] and “notably declined” in experiment [5] (listed as synthetic sulfated- SK). Further, in experiment [6], the Food consumption result was “notably declined”.
